Broadly, the pA2 is a measure of antagonist potency on a negative log scale.

Bridge positions count the residues as written; N and C are the ends. Peptide text beside a SMILES is read from it. A value given as a limit tells only on which side of the number the result lay.

The test system of assay [1] is porcine coronary smooth muscles. As to the method:
(1) Assay of Constrictor Suppressing Activity on Porcine Coronary Smooth Muscles
(§1) Spiral strips 2 mm×15 mm prepared from the coronary right ramus circumflexus from which the adventitial connective tissues and the endothelial cells were removed were set to 4 ml organ baths. The tension of each strip was detected by a force displacement transducer UL-10GR (Minebea), and recorded by a polygraph (NEC Sanei). The organ baths were maintained at 37° C., and filled with a Krebs-Henseleit solution (composition: 118 mM NaCl, 4.7 mM KCl, 2.5 mM CaCl2, 1.2 mM KH2 PO4, 25.0 mM NaHCO3, 1.2 mM MgSO4, 10.0 mM glucose) gassed with 95% O2 and 5% CO2.
(§2) A tension of 1.25 to 1.5 g was applied to each of the strips, followed by equilibration for 1.5 hours. 60 mM KCl was repeatedly applied thereto at intervals of 30 minutes until the constriction response became constant. After additional equilibration for 1.5 hours, a sample for assay was given thereto. The constriction of the strips was normalized by the constriction response of the individual strips to 60 mM KCl and statistically processed.
pA2 is a negative logarithm value of a molar concentration of a competitive antagonist necessary for shifting in parallel a dose response curve for an active drug (for example, ET-1) alone to the high dose side by a factor of 2.

For a further assay, the system named is endothelin receptor. Description: Assay of affinity for receptor (inhibition of 125I-ET-1 binding to porcine myocardial membrane fraction). To be noted: relative to ET-1 = 100. As to the method:
Assay of Affinity for Receptor
A membrane fraction prepared from the porcine heart was diluted to 0.15 mg/ml by using a buffer solution for assay, and 100 μl of the resulting suspension of the membrane fraction was poured into each assay tube to use for assay. To this suspension of the membrane fraction was added 2 μl of 5 nM ^125 I labeled endothelin-1 solution. Further, 3 μl of a test peptide solution was added thereto, followed by incubation at a temperature of 25° C. for 1 hour. Then, the resulting suspension was diluted with 900 μl of the buffer solution for assay cooled with ice, and thereafter separated into a supernatant and a precipitate by centrifugation at 12,000×g for 10 minutes. Cell membranes and an endothelin receptor embedded therein were contained in the precipitate, and radioactive iodine-labeled endothelin combined with the receptor was also recovered in the precipitate. Accordingly, the amount of radioactive iodine-labeled endothelin combined with the endothelin receptor was determined by measuring the amount of radioactive iodine contained in the precipitate with a gamma-ray counter.

The test system of a further assay is porcine coronary artery. Description: Constrictor activity on porcine coronary smooth muscles. To be noted: for Maximum constriction (% 60 mM KCl): porcine coronary artery strips, normalized to 60 mM KCl response; for Constrictor activity (specific activity): relative to ET-1 = 100, porcine coronary artery. As to the method: as §1, §2
(2) As to the antagonistic property of the peptides of the present invention to endothelin, the affinity for an endothelin receptor and the constrictor activity on porcine coronary smooth muscles (according to the method described in (1) described above) were assayed. The affinity for the receptor was assayed by the following method.

In assay [1], `CC[C@H](C)[C@H](NC(=O)[C@H](CC(C)C)NC(=O)[C@@H](NC(=O)[C@H](CC(C)C)NC(=O)[C@H](Cc1c[nH]cn1)NC(=O)[C@@H]1CSSC[C@H](N)C(=O)N[C@@H](CO)C(=O)N[C@H]2CSSC[C@H](NC(=O)[C@H](CCC(=O)O)NC(=O)[C@H](CCCCN)NC(=O)[C@H](CC(=O)O)NC(=O)[C@H](CCSC)NC(=O)[C@H](CC(C)C)NC(=O)[C@H](C)NC(=O)[C@H](CO)NC2=O)C(=O)N[C@@H](C(C)C)C(=O)N[C@@H](Cc2ccc(O)cc2)C(=O)N[C@@H](Cc2ccccc2)C(=O)N1)[C@@H](C)O)C(=O)N[C@@H](Cc1c[nH]c2ccccc12)C(=O)O` [Example 14, [Ala^5, Thr^18, Leu^19]-ET-1] (H-CSCSALMDKECVYFCHLTLIW-OH; disulfide 1-15, 3-11) yielded a Relative potency of 0.6 and a pA2 of 5.5. Moreover, the “Receptor binding activity (specific activity)” value (shortened to “Receptor binding activity”) in the assay with endothelin receptor is reported as 8.6. Moreover, in the assay on porcine coronary artery, the “Maximum constriction (% 60 mM KCl)” value was determined as 6 % 60 mM KCl and the “Constrictor activity (specific activity)” value is given as below 0.1.

Take `CC[C@H](C)[C@H](NC(=O)[C@H](CC(C)C)NC(=O)[C@@H](NC(=O)[C@H](CC(C)C)NC(=O)[C@H](Cc1c[nH]cn1)NC(=O)[C@@H]1CSSC[C@H](N)C(=O)N[C@@H](CO)C(=O)N[C@H]2CSSC[C@H](NC(=O)[C@H](CCC(=O)O)NC(=O)[C@H](CCCCN)NC(=O)[C@H](CC(=O)O)NC(=O)[C@H](CCSC)NC(=O)[C@H](C)NC(=O)[C@H](CO)NC(=O)[C@H](CO)NC2=O)C(=O)N[C@@H](C(C)C)C(=O)N[C@@H](Cc2ccc(O)cc2)C(=O)N[C@@H](Cc2ccccc2)C(=O)N1)[C@@H](C)O)C(=O)N[C@@H](Cc1c[nH]c2ccccc12)C(=O)O` [Example 15, [Ala^6, Thr^18, Leu^19]-ET-1] (H-CSCSSAMDKECVYFCHLTLIW-OH; disulfide 1-15, 3-11): in assay [1], the Relative potency is listed as 6 and the pA2 was determined as 6.5. Also, the “Receptor binding activity” value in the assay with endothelin receptor amounted to 11. In the assay on porcine coronary artery, the “Maximum constriction (% 60 mM KCl)” value was 7 % 60 mM KCl and the “Constrictor activity (specific activity)” value was below 0.1.

For the compound `CC[C@H](C)[C@H](NC(=O)[C@H](CC(C)C)NC(=O)[C@@H](NC(=O)[C@H](CC(C)C)NC(=O)[C@H](Cc1c[nH]cn1)NC(=O)[C@@H]1CSSC[C@H](N)C(=O)N[C@@H](CO)C(=O)N[C@H]2CSSC[C@H](NC(=O)[C@H](CCC(=O)O)NC(=O)[C@H](CCCCN)NC(=O)[C@H](CC(=O)O)NC(=O)[C@H](C)NC(=O)[C@H](CC(C)C)NC(=O)[C@H](CO)NC(=O)[C@H](CO)NC2=O)C(=O)N[C@@H](C(C)C)C(=O)N[C@@H](Cc2ccc(O)cc2)C(=O)N[C@@H](Cc2ccccc2)C(=O)N1)[C@@H](C)O)C(=O)N[C@@H](Cc1c[nH]c2ccccc12)C(=O)O` [Example 16, [Ala^7, Thr^18, Leu^19]-ET-1] (H-CSCSSLADKECVYFCHLTLIW-OH; disulfide 1-15, 3-11), in assay [1], the pA2 was determined as 7.2. Also, in the assay on endothelin receptor, the “Receptor binding activity” value came out at 62. For the same compound, in the assay on porcine coronary artery, the “Maximum constriction (% 60 mM KCl)” value is 9 % 60 mM KCl and the “Constrictor activity (specific activity)” value is below 0.1.

The values above are taken from patent US5352659A, “Endothelin analogs and uses thereof” (Takeda Chemical Industries, priority 1991, dated 1994).
